Experimental data: patent publication US8222404B2, “[1,2,4]Thiadiazin-3-yl acetic acid compound and methods of making the acetic acid compound” (Anadys Pharmaceuticals, Inc., priority 2008, dated 2012)

The compounds below were run on HCV Huh-luc/neo-ET replicon cells (assay: Luciferase-Based HCV Replicon Assay (EC50 (1b))). Details: Hepatitis C virus, 72 hours exposure, luciferase activity.
Assay type: cell-based
Summary of the method: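 Replicon cells seeded, then exposed 24 h later to a compound concentration series in triplicate for 72 h. Luciferase luminescence read; % inhibition vs no-compound control, with 100 nM BILN-2061 as background, used to derive EC50 (1b).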

Question: Which EC50 does the source give for `CS(=O)(=O)NCc1csc2c1S(=O)(=O)N=C(C1=C(O)C3CCCCCC3N(Cc3ccc(F)cc3)C1=O)N2` (racemic) [Example 120, (rac-cis)-N-{3-[1-(4-Fluoro-benzyl)-4-hydroxy-2-oxo-2,4a,5,6,7,8,9,9a-octahydro-1H-cyclohepta[b]pyridin-3-yl]-1,1-dioxo-1,4-dihydro-1λ^6-thieno[2,3-e][1,2,4]thiadiazin-7-ylmethyl}-methanesulfonamide] here?
Answer: Its EC50 is 20 to 100 nM.

Question: Which EC50 does the source give for `CC(C)CCC1(C)CN(C2CCC2)C(=O)C(C2=NS(=O)(=O)c3c(CNS(C)(=O)=O)csc3N2)=C1O` (racemic) [Example 20, rac-N-{3-[1-Cyclobutyl-4-hydroxy-5-methyl-5-(3-methyl-butyl)-2-oxo-1,2,5,6-tetrahydro-pyridin-3-yl]-1,1-dioxo-1,4-dihydro-1λ^6-thieno[2,3-e][1,2,4]thiadiazin-7-ylmethyl {-methanesulfonamide] here?
Answer: Its EC50 is 100 to 1000 nM.

Question: `CS(=O)(=O)NCc1csc2c1S(=O)(=O)N=C(C1=C(O)[C@@H]3[C@@H]4CC[C@@H](C4)[C@@H]3N(Cc3ccc(F)c(F)c3)C1=O)N2` [Example 41, N-{3-[(1S,2S,7R,8R)-3-(3,4-Difluoro-benzyl)-6-hydroxy-4-oxo-3-aza-tricyclo[6.2.1.0^2,7]undec-5-en-5-yl]-1,1-dioxo-1,4-dihydro-1λ^6-thieno[2,3-e][1,2,4]thiadiazin-7-ylmethyl}-methanesulfonamide] was tested. Which EC50 did it give?
Answer: Its EC50 is 5 to 20 nM.

Question: With `CS(=O)(=O)NCc1csc2c1S(=O)(=O)N=C(C1=C(O)[C@@H]3C4CCC(CC4)[C@@H]3N(Cc3ccc(F)cc3F)C1=O)N2` [Example 51, N-{3-[(2S,7R)-3-(2,4-Difluoro-benzyl)-6-hydroxy-4-oxo-3-aza-tricyclo[6.2.2.0^2,7]dodec-5-en-5-yl]-1,1-dioxo-1,4-dihydro-1λ^6-thieno[2,3-e][1,2,4]thiadiazin-7-ylmethyl}-methanesulfonamide] as the compound, how does the EC50 read?
Answer: Its EC50 is 20 to 100 nM.

Question: With `Cc1cc(CN2C(=O)C(C3=NS(=O)(=O)c4c(CNS(C)(=O)=O)csc4N3)=C(O)[C@@H]3C4CCC(CC4)[C@@H]32)ccc1F` [Example 52, N-{3-[(2S,7R)-3-(4-Fluoro-3-methyl-benzyl)-6-hydroxy-4-oxo-3-aza-tricyclo[6.2.2.0^2,7]dodec-5-en-5-yl]-1,1-dioxo-1,4-dihydro-1λ^6-thieno[2,3-e][1,2,4]thiadiazin-7-ylmethyl}-methanesulfonamide] as the compound, how does the EC50 read?
Answer: The EC50 was ≤ 5 nM.

Question: `CC(C)CCN1C(=O)C(C2=NS(=O)(=O)c3c(CNS(C)(=O)=O)csc3N2)=C(O)C2CCCCC21` (racemic) [Example 132, (rac-cis)-N-{3-[4-Hydroxy-1-(3-methyl-butyl)-2-oxo-1,2,4a,5,6,7,8,8a-octahydro-quinolin-3-yl]-1,1-dioxo-1,4-dihydro-1λ^6-thieno[2,3-e][1,2,4]thiadiazin-7-ylmethyl}-methanesulfonamide] was tested. Which EC50 did it give?
Answer: Its EC50 is 20 to 100 nM.

Question: For `CC(C)(C)CCN1C(=O)C(C2=NS(=O)(=O)c3c(CNS(C)(=O)=O)csc3N2)=C(O)C2C3CCC(O3)C21` (racemic) [Example 62, (rac-di-exo)-N-{3-[3-(3,3-Dimethyl-butyl)-6-hydroxy-4-oxo-11-oxa-3-aza-tricyclo[6.2.1.0^2,7]undec-5-en-5-yl]-1,1-dioxo-1,4-dihydro-1λ^6-thieno[2,3-e][1,2,4]thiadiazin-7-ylmethyl}-methanesulfonamide], which EC50 is on record?
Answer: Its EC50 is 5 to 20 nM.

Question: Which EC50 does the source give for `CS(=O)(=O)NCc1csc2c1S(=O)(=O)N=C(C1=C(O)[C@@H]3CCC[C@@H]3N(Cc3ccc(F)cc3)C1=O)N2` [Example 110, (4aR,7aS)-N-{3-[1-(4-Fluoro-benzyl)-4-hydroxy-2-oxo-2,4a,5,6,7,7a-hexahydro-1H-[1]pyrindin-3-yl]-1,1-dioxo-1,4-dihydro-1λ^6-thieno[2,3-e][1,2,4]thiadiazin-7-ylmethyl}-methanesulfonamide] here?
Answer: Its EC50 is 5 to 20 nM.

Question: `CS(=O)(=O)NCc1csc2c1S(=O)(=O)N=C(C1=C(O)CC(C3CCC3)N(Cc3ccc(F)cc3)C1=O)N2` (racemic) [Example 6, rac-N-{3-[6-Cyclobutyl-1-(4-fluoro-benzyl)-4-hydroxy-2-oxo-1,2,5,6-tetrahydro-pyridin-3-yl]-1,1-dioxo-1,4-dihydro-1λ^6-thieno[2,3-e][1,2,4]thiadiazin-7-ylmethyl}-methanesulfonamide] was tested. Which EC50 did it give?
Answer: The EC50 was 100 to 1000 nM.

Question: With `Cc1cc(CN2C(=O)C(C3=NS(=O)(=O)c4c(CNS(C)(=O)=O)csc4N3)=C(O)[C@@H]3[C@H]4CC[C@H](C4)[C@@H]32)ccc1F` [Example 53, N-{3-[(1R,2S,7R,8S)-3-(4-Fluoro-3-methyl-benzyl)-6-hydroxy-4-oxo-3-aza-tricyclo[6.2.1.0^2,7]undec-5-en-5-yl]-1,1-dioxo-1,4-dihydro-1λ^6-thieno[2,3-e][1,2,4]thiadiazin-7-ylmethyl}-methanesulfonamide] as the compound, how does the EC50 read?
Answer: The EC50 was 5 to 20 nM.

Question: With `CS(=O)(=O)NCc1csc2c1S(=O)(=O)N=C(C1=C(O)C3CCCCC3N(Cc3ccccc3)C1=O)N2` (racemic) [Example 130, (rac-cis)-N-[3-(1-Benzyl-4-hydroxy-2-oxo-1,2,4a,5,6,7,8,8a-octahydro-quinolin-3-yl)-1,1-dioxo-1,4-dihydro-1λ^6-thieno[2,3-e][1,2,4]thiadiazin-7-ylmethyl]-methanesulfonamide] as the compound, how does the EC50 read?
Answer: Its EC50 is 100 to 1000 nM.

Question: Which EC50 does the source give for `CC(C)(C)CCN1C(=O)C(C2=NS(=O)(=O)c3c(CNS(C)(=O)=O)csc3N2)=C(O)[C@@H]2[C@H]3CC[C@H](C3)[C@@H]21` [Example 67, N-{3-[(1R,2S,7R,8S)-3-(3,3-Dimethyl-butyl)-6-hydroxy-4-oxo-3-aza-tricyclo[6.2.1.0^2,7]undec-5-en-5-yl]-1,1-dioxo-1,4-dihydro-1λ^6-thieno[2,3-e][1,2,4]thiadiazin-7-ylmethyl}-methanesulfonamide] here?
Answer: The EC50 was 5 to 20 nM.

Question: For `COc1ccc(CN2C(=O)C(C3=NS(=O)(=O)c4c(CNS(C)(=O)=O)csc4N3)=C(O)[C@@H]3CCC[C@@H]32)c(OC)c1` [Example 77, (4aR,7aS)-N-{3-[1-(2,4-Dimethoxy-benzyl)-4-hydroxy-2-oxo-2,4a,5,6,7,7a-hexahydro-1H-[1]pyrindin-3-yl]-1,1-dioxo-1,4-dihydro-1λ^6-thieno[2,3-e][1,2,4]thiadiazin-7-ylmethyl}-methanesulfonamide], which EC50 is on record?
Answer: The EC50 was > 1000 nM.

Question: For `CS(=O)(=O)NCc1csc2c1S(=O)(=O)N=C(C1=C(O)C3CCCCCC3N(Cc3ccc(F)c(F)c3)C1=O)N2` (racemic) [Example 137, (rac-cis)-N-{3-[1-(3,4-Difluoro-benzyl)-4-hydroxy-2-oxo-2,4a,5,6,7,8,9,9a-octahydro-1H-cyclohepta[b]pyridin-3-yl]-1,1-dioxo-1,4-dihydro-1λ^6-thieno[2,3-e][1,2,4]thiadiazin-7-ylmethyl}-methanesulfonamide], which EC50 is on record?
Answer: Its EC50 is 100 to 1000 nM.

Question: `CS(=O)(=O)NCc1csc2c1S(=O)(=O)N=C(C1=C(O)[C@@H]3C4CCC(CC4)[C@@H]3N(Cc3cc(F)c(F)c(F)c3)C1=O)N2` [Example 70, N-{3-[(2S,7R)-6-Hydroxy-4-oxo-3-(3,4,5-trifluoro-benzyl)-3-aza-tricyclo[6.2.2.0^2,7]dodec-5-en-5-yl]-1,1-dioxo-1,4-dihydro-1λ^6-thieno[2,3-e][1,2,4]thiadiazin-7-ylmethyl}-methanesulfonamide] was tested. Which EC50 did it give?
Answer: The EC50 was ≤ 5 nM.

Question: For `CC(C)CCN1C(=O)C(C2=NS(=O)(=O)c3c(CNS(C)(=O)=O)csc3N2)=C(O)[C@@H]2C3CCC(CC3)[C@@H]21` [Example 71, N-{3-[(2S,7R)-6-Hydroxy-3-(3-methyl-butyl)-4-oxo-3-aza-tricyclo[6.2.2.0^2,7]dodec-5-en-5-yl]-1,1-dioxo-1,4-dihydro-1λ^6-thieno[2,3-e][1,2,4]thiadiazin-7-ylmethyl]-methanesulfonamide], which EC50 is on record?
Answer: The EC50 was 5 to 20 nM.
